Where “and” joins values, the source holds several entries; their conditions need not be identical. Equal values may be shown once. Inconclusive results and toxic doses are left out. Cut-off read from the data, not from the text of the source: active = T/C of 150% or more; inactive = T/C below 125%.
Tested on: L1210 leukemia ip in BDF1 mice, survival T/C
Assay: NCI In Vivo Anticancer Drug Screen. Data for tumor model L1210 Leukemia (intraperitoneal) in B6D2F1 (BDF1) mice
Conditions: endpoint: mean survival time, higher = longer survival
Outline: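 Antitumor effect is assessed in tumor-bearing animals. Survival in the compound arm is compared with a vehicle-dosed control arm and expressed as their quotient.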

[1] = dose: 100.0 mg/kg/injection, schedule: Q01DX001 (ip), vehicle: saline
[2] = dose: 200.0 mg/kg/injection, schedule: Q01DX001 (ip), vehicle: saline
[3] = dose: 50.0 mg/kg/injection, schedule: Q01DX001 (ip), vehicle: saline with Tween-80
[4] = dose: 100.0 mg/kg/injection, schedule: Q01DX009 (ip), vehicle: Klucel (hydroxypropylcellulose) (HPC)
[5] = dose: 100.0 mg/kg/injection, schedule: Q04DX003 (ip), vehicle: Klucel (hydroxypropylcellulose) (HPC)
[6] = dose: 200.0 mg/kg/injection, schedule: Q01DX009 (ip), vehicle: Klucel (hydroxypropylcellulose) (HPC)
[7] = dose: 200.0 mg/kg/injection, schedule: Q04DX003 (ip), vehicle: Klucel (hydroxypropylcellulose) (HPC)
[8] = dose: 400.0 mg/kg/injection, schedule: Q01DX009 (ip), vehicle: Klucel (hydroxypropylcellulose) (HPC)
[9] = dose: 400.0 mg/kg/injection, schedule: Q04DX003 (ip), vehicle: Klucel (hydroxypropylcellulose) (HPC)

Measured: T/C

O=C(c1ccccc1)C(C(c1ccccc1)N1CCOCC1)N1CCOCC1 (centres undefined)
inactive: dose: 50.0 mg/kg/injection, schedule: Q01DX001 (ip), vehicle: saline 113 % of control | [1] 102 % of control | [2] 108 % of control | dose: 400.0 mg/kg/injection, schedule: Q01DX001 (ip), vehicle: saline 102 % of control

NCCCCCCNC(=O)CCC(=O)NCCCCCCN
inactive: dose: 8.0 mg/kg/injection, schedule: Q01DX Z (ip), vehicle: water 86 % of control | dose: 16.0 mg/kg/injection, schedule: Q01DX Z (ip), vehicle: water 91 % of control | dose: 32.0 mg/kg/injection, schedule: Q01DX Z (ip), vehicle: water 88 % of control | dose: 64.0 mg/kg/injection, schedule: Q01DX Z (ip), vehicle: saline 109 % of control | dose: 64.0 mg/kg/injection, schedule: Q01DX Z (ip), vehicle: water 91 % of control | dose: 128.0 mg/kg/injection, schedule: Q01DX Z (ip), vehicle: saline 88 % of control

CC(=O)NC(N)=NCCCC(N)C(=O)O (centres undefined)
inactive: dose: 75.0 mg/kg/injection, schedule: Q04DX003 (ip), vehicle: Klucel (hydroxypropylcellulose) (HPC) 91 % of control | dose: 150.0 mg/kg/injection, schedule: Q04DX003 (ip), vehicle: Klucel (hydroxypropylcellulose) (HPC) 94 % of control | dose: 300.0 mg/kg/injection, schedule: Q04DX003 (ip), vehicle: Klucel (hydroxypropylcellulose) (HPC) 94 % of control

Cc1ccc(S(=O)(=O)N/N=C2/C(=O)C3CCC2C3)cc1 (centres undefined)
inactive: [3] 92 % of control | dose: 100.0 mg/kg/injection, schedule: Q01DX001 (ip), vehicle: saline with Tween-80 92 % of control | dose: 200.0 mg/kg/injection, schedule: Q01DX001 (ip), vehicle: saline with Tween-80 87 % of control

NC(N)=NC(N)=NCCCc1ccccc1
inactive: dose: 12.5 mg/kg/injection, schedule: Q01DX001 (ip), vehicle: other 107 % of control | dose: 12.5 mg/kg/injection, schedule: Q04DX003 (ip), vehicle: other 97 % of control | dose: 25.0 mg/kg/injection, schedule: Q01DX001 (ip), vehicle: other 96 % of control | dose: 25.0 mg/kg/injection, schedule: Q04DX003 (ip), vehicle: other 94 % of control | dose: 50.0 mg/kg/injection, schedule: Q01DX001 (ip), vehicle: other 102 % of control | dose: 50.0 mg/kg/injection, schedule: Q04DX003 (ip), vehicle: other 97 % of control | [1] 96 % of control | [2] 96 % of control

N#CCCN(CCC#N)[N+](=O)[O-]
inactive: dose: 87.5 mg/kg/injection, schedule: Q01DX009 (ip), vehicle: Klucel (hydroxypropylcellulose) (HPC) 97 % of control | dose: 100.0 mg/kg/injection, schedule: Q04DX002 (ip), vehicle: Klucel (hydroxypropylcellulose) (HPC) 98 % of control | dose: 100.0 mg/kg/injection, schedule: Q04DX002 (ip), vehicle: saline + alcohol 97 % of control | dose: 175.0 mg/kg/injection, schedule: Q01DX009 (ip), vehicle: Klucel (hydroxypropylcellulose) (HPC) 100 % of control | dose: 200.0 mg/kg/injection, schedule: Q04DX002 (ip), vehicle: Klucel (hydroxypropylcellulose) (HPC) 102 % of control | dose: 200.0 mg/kg/injection, schedule: Q04DX002 (ip), vehicle: saline + alcohol 105 % of control | dose: 400.0 mg/kg/injection, schedule: Q04DX002 (ip), vehicle: Klucel (hydroxypropylcellulose) (HPC) 87 % of control | dose: 400.0 mg/kg/injection, schedule: Q04DX002 (ip), vehicle: saline + alcohol 101 % of control

c1nc2c([nH]1)CCCCC2
inactive: dose: 12.5 mg/kg/injection, schedule: Q01DX001 (ip), vehicle: saline with Tween-80 100 % of control | dose: 25.0 mg/kg/injection, schedule: Q01DX001 (ip), vehicle: saline with Tween-80 97 % of control | dose: 25.0 mg/kg/injection, schedule: Q01DX009 (ip), vehicle: other 104 % of control and 106 % of control | dose: 25.0 mg/kg/injection, schedule: Q04DX002 (ip), vehicle: other 99 % of control and 110 % of control | [3] 100 % of control | dose: 50.0 mg/kg/injection, schedule: Q01DX009 (ip), vehicle: other 101 % of control and 88 % of control | dose: 50.0 mg/kg/injection, schedule: Q04DX002 (ip), vehicle: other 105 % of control and 113 % of control | dose: 100.0 mg/kg/injection, schedule: Q04DX002 (ip), vehicle: other 100 % of control and 103 % of control

O=C(c1ccccc1)c1c2ccccc2c(C(=O)c2ccccc2)c2ccccc12
inactive: [4] 104 % of control | [5] 103 % of control | [6] 97 % of control | [7] 100 % of control | [8] 97 % of control | [9] 99 % of control

CCCCCCCCCCCCNCCC#N
inactive: dose: 100.0 mg/kg/injection, schedule: Q04DX002 (sc), vehicle: olive oil, sesame oil, peanut oil 100 % of control | dose: 200.0 mg/kg/injection, schedule: Q04DX002 (sc), vehicle: olive oil, sesame oil, peanut oil 98 % of control | dose: 400.0 mg/kg/injection, schedule: Q04DX002 (sc), vehicle: olive oil, sesame oil, peanut oil 98 % of control

C=C(C)C(=O)Nc1c(C)cccc1C
inactive: [5] 105 % of control | [7] 94 % of control

CCOC(=O)C(C)(C)CCl
inactive: [4] 100 % of control | [6] 94 % of control | [8] 103 % of control

CC1NC(=O)COC1c1ccccc1 (centres undefined)
inactive: dose: 25.0 mg/kg/injection, schedule: Q01DX009 (ip), vehicle: Klucel (hydroxypropylcellulose) (HPC) 101 % of control | dose: 50.0 mg/kg/injection, schedule: Q01DX009 (ip), vehicle: Klucel (hydroxypropylcellulose) (HPC) 95 % of control | [4] 101 % of control | [6] 96 % of control

c1ccc2c(CNC3CCCCC3)c[nH]c2c1
inactive: dose: 50.0 mg/kg/injection, schedule: Q01DX001 (ip), vehicle: carboxymethylcellulose (CMC) 90 % of control | [5] 90 % of control | [7] 97 % of control | [9] 98 % of control

C[N+](C)(C)Cn1nnc2ccccc21
inactive: dose: 75.0 mg/kg/injection, schedule: Q01DX001 (ip), vehicle: saline 105 % of control | dose: 150.0 mg/kg/injection, schedule: Q01DX001 (ip), vehicle: saline 108 % of control

CCCCCCOP(=O)(N1CC1C)N1CC1C (centres undefined)
inactive: dose: 12.0 mg/kg/injection, schedule: Q01DX Z (ip), vehicle: saline 102 % of control | dose: 25.0 mg/kg/injection, schedule: Q01DX Z (ip), vehicle: saline 103 % of control | dose: 50.0 mg/kg/injection, schedule: Q01DX Z (ip), vehicle: saline 102 % of control and 111 % of control | dose: 100.0 mg/kg/injection, schedule: Q01DX Z (ip), vehicle: saline 109 % of control | dose: 200.0 mg/kg/injection, schedule: Q01DX Z (ip), vehicle: saline 107 % of control | dose: 400.0 mg/kg/injection, schedule: Q01DX Z (ip), vehicle: saline 106 % of control

Cc1cccc(Cl)c1NC1=NCCO1
inactive: dose: 6.25 mg/kg/injection, schedule: Q01DX009 (ip), vehicle: saline with Tween-80 93 % of control | dose: 12.5 mg/kg/injection, schedule: Q01DX009 (ip), vehicle: saline with Tween-80 102 % of control | dose: 25.0 mg/kg/injection, schedule: Q01DX009 (ip), vehicle: saline with Tween-80 100 % of control

Cc1ccc(S(=O)(=O)Oc2ccc(Cl)cc2)cc1
inactive: [4] 102 % of control | [5] 105 % of control | [6] 98 % of control | [7] 97 % of control | [8] 102 % of control | [9] 101 % of control

C=C(C)CN
inactive: dose: 50.0 mg/kg/injection, schedule: Q01DX009 (ip), vehicle: saline 109 % of control | dose: 100.0 mg/kg/injection, schedule: Q01DX009 (ip), vehicle: saline 117 % of control | dose: 100.0 mg/kg/injection, schedule: Q04DX003 (ip), vehicle: saline 93 % of control | dose: 200.0 mg/kg/injection, schedule: Q04DX003 (ip), vehicle: saline 106 % of control

O=C(NCCCN1CC1)C(=O)NNc1ccccc1
inactive: [5] 102 % of control | [7] 93 % of control

CN1CC(C(=O)NC(C)(C)C)CC(c2ccccc2)C1 (centres undefined)
inactive: dose: 6.25 mg/kg/injection, schedule: Q01DX009 (ip), vehicle: saline 91 % of control | dose: 12.5 mg/kg/injection, schedule: Q01DX009 (ip), vehicle: saline 86 % of control | dose: 25.0 mg/kg/injection, schedule: Q01DX009 (ip), vehicle: saline 86 % of control

NC(=O)Nc1ccc(Cl)cc1
inactive: dose: 100.0 mg/kg/injection, schedule: Q01DX009 (ip), vehicle: saline with Tween-80 101 % of control | [5] 99 % of control | dose: 200.0 mg/kg/injection, schedule: Q01DX009 (ip), vehicle: saline with Tween-80 96 % of control | [7] 91 % of control | [9] 102 % of control

O=c1ncc2[nH]c(I)nc2[nH]1
inactive: dose: 100.0 mg/kg/injection, schedule: Q01DX001 (ip), vehicle: carboxymethylcellulose (CMC) 96 % of control
